Key:
Plasminogen [1] = biological target: T1, Plasminogen (Homo sapiens, UniProt P00747); experiment: Inhibition of plasmin (unknown origin) using Boc-Val-Leu-Lys-MCA as substrate by fluorescence analysis
[2] = biological target: Urokinase-type plasminogen activator (Homo sapiens, UniProt P00749); experiment: Inhibition of urokinase (unknown origin) using Pyr-Gly-Arg-MCA as substrate by fluorescence analysis
Plasminogen [3] = biological target: T1, Plasminogen; experiment: Inhibition of plasmin (unknown origin) assessed as relative potency using Boc-Val-Leu-Lys-MCA as substrate by fluorescence analysis

T1 sequence (P00747 97-580 limits assumed): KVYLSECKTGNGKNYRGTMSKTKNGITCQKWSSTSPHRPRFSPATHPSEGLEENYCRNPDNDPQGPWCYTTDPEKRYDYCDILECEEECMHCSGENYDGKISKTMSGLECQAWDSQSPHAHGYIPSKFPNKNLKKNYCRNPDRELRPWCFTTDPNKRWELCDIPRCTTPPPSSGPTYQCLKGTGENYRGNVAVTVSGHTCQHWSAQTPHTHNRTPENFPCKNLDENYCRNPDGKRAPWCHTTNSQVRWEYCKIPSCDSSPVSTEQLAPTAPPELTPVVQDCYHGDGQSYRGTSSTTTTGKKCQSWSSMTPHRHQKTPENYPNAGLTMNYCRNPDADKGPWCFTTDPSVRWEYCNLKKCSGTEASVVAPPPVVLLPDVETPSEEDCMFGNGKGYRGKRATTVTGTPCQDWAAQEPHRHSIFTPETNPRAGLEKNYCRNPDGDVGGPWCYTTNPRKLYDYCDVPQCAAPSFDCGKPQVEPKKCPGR
T1 sequence (P00747 581-810 limits assumed): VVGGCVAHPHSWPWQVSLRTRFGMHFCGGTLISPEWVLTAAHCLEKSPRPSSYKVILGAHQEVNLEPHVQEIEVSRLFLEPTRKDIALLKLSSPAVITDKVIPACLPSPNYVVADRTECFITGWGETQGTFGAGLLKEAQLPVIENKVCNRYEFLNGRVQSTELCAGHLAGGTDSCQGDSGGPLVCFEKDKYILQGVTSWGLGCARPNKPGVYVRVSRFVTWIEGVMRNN

| IC50 (Plasminogen [1]) [µM] | IC50 [2] [µM] | fold change (FC) (Plasminogen [3]) | Structure (SMILES) |
| --- | --- | --- | --- |
| 100 | > 200 |  | Cn1c(CN2C(=O)CN(c3ccc(F)cc3)C2=O)nc2ccc(C(=O)N[C@H](C#N)CCCCN)cc21 |
| 29 |  |  | CC(C)Cn1c(=O)oc2ccc(N3CC(=O)N(Cc4cc5cnc(C(=O)N[C@H](C#N)CCCCN)nc5n4C)C3=O)cc21 |
| 26 |  |  | CCCn1c(=O)oc2ccc(N3CC(=O)N(Cc4cc5cnc(C(=O)N[C@H](C#N)CCCCN)nc5n4C)C3=O)cc21 |
| 43 | > 200 | 3 | Cn1c(CN2C(=O)CN(c3ccc(F)cc3)C2=O)cc2cnc(C(=O)N[C@H](C#N)CCCCN)nc21 |
| 25 |  |  | Cn1c(CN2C(=O)CN(c3ccc(Oc4ccccc4)cc3)C2=O)nc2ccc(C(=O)N[C@H](C#N)CCCCN)cc21 |
| 56 | > 200 |  | Cn1c(CN2C(=O)CN(c3ccc(Oc4ccncc4)cc3)C2=O)nc2ccc(C(=O)N[C@H](C#N)CCCCN)cc21 |
| > 200 |  |  | Cn1c(CN2C(=O)CN(c3ccc4c(c3)oc(=O)n4Cc3ccncc3)C2=O)cc2cnc(C(=O)N[C@H](C#N)CCCCN)nc21 |

The next lines start with the compound.

| Structure (SMILES) | IC50 (Plasminogen [1]) [µM] | IC50 [2] [µM] | fold change (FC) (Plasminogen [3]) |
| --- | --- | --- | --- |
| CC(C)Cn1c(=O)oc2cc(N3CC(=O)N(Cc4cc5cnc(C(=O)N[C@H](C#N)CCCCN)nc5n4C)C3=O)ccc21 | > 200 |  |  |
| Cn1c(CN2C(=O)CN(c3ccc(Oc4ccccc4)cc3)C2=O)nc2cc(C(=O)N[C@H](C#N)CCCCN)ccc21 | > 200 |  |  |
| Cn1c(CN2C(=O)CN(c3ccc4oc(=O)n(C)c4c3)C2=O)cc2cnc(C(=O)N[C@H](C#N)CCCCN)nc21 | 43 |  | 3.1 |
| Cn1c(CN2C(=O)CN(c3ccc4c(c3)oc(=O)n4C)C2=O)cc2cnc(C(=O)N[C@H](C#N)CCCCN)nc21 | 130 |  | 3.9 |
| Cn1c(CN2C(=O)CN(c3ccc(Oc4ccncc4)cc3)C2=O)cc2cnc(C(=O)N[C@H](C#N)CCCCN)nc21 | 74 | > 200 |  |
| Cn1c(CN2C(=O)CN(c3ccc(Oc4ccccc4)cc3)C2=O)cc2cnc(C(=O)N[C@H](C#N)CCCCN)nc21 | 14 | > 200 | 1 |
| CCCn1c(=O)oc2cc(N3CC(=O)N(Cc4cc5cnc(C(=O)N[C@H](C#N)CCCCN)nc5n4C)C3=O)ccc21 | 160 |  |  |
| N#C[C@H](CCCCN)NC(=O)c1nc2cc(CN3C(=O)CN(c4ccc(F)cc4)C3=O)ccc2o1 | > 200 |  | > 14.3 |
| Cn1c(CN2C(=O)CN(c3ccc4oc(=O)n(Cc5ccncc5)c4c3)C2=O)cc2cnc(C(=O)N[C@H](C#N)CCCCN)nc21 | 23 |  |  |

From ChEMBL document CHEMBL3585277, “Novel type of plasmin inhibitors: providing insight into P4 moiety and alternative scaffold to pyrrolopyrimidine” (Bioorg Med Chem, 2015)
